Laboratory results from patent US20230346791A1, “ATR INHIBITORS FOR THE TREATMENT OF CANCER” (AstraZeneca AB, priority 2020, published 2023).
Where two headings read alike, the source gives them in different places.

Details: for dose-limiting toxicity (DLT): cohort of n=6 evaluable patients
Protocol: Overall Study Design: The study consisted of two parts, each evaluating the safety and tolerability of AZD6738 when given in combination with paclitaxel. An oral formulation of AZD6738 was used. The first part (Part A) was in combination with paclitaxel; the starting dose of 40 mg AZD6738 OD was escalated to reach a maximum tolerated dose in patients with advanced solid malignancies, as defined by dose-limiting toxicity. […] We made the number and doses of these cohorts flexible so that we could make adjustment as the PK data emerged. […] Dose escalations were conducted in each cohort independently; however, number and doses of the cohorts were to be subject to change as the PK data emerged.
Part A: We conducted a phase I trial for determining maximal tolerate dose (MTD) of AZD6738 when given in combination with fixed dose of paclitaxel in patients with refractory cancer. We used a rolling 6 design in this PART A. Treatment schedule was as follows. Start regimen (every 4 weeks): 40 mg OD dosing of AZD6738, 3 weeks on/ 1 week off; paclitaxel 80 mg/m2 on day 1, 8, 15 This part was in combination with paclitaxel of standard dose; starting dose of 40 mg AZD6738 OD was escalated to reach a maximum tolerated dose in metastatic solid cancer patients. Each cycle was composed of 4 weeks. The decision to dose escalate was to be made upon the assessment of the safety and tolerability data collected up until the time of study drug administration on Cycle 2, Day 1. This DLT assessment period was selected as the major toxicities leading to cessation of dose escalation in such studies (haematological, gastrointestinal, liver enzymes) were anticipated to present within this duration. Doses and/or schedules of AZD6738 were to be defined by the SRC. The cohort size of at least 3 and up to 6 patients (‘rolling six design’) was employed to improve the rate of accrual of patients to cohorts close to the presumed therapeutic dose by reducing the need for late replacement of patients who become non-evaluable during the DLT assessment period, whilst not compromising collection of safety data. […]

C[C@@H]1COCCN1c1cc(C2([S@](C)(=N)=O)CC2)nc(-c2cc[nH]c3nccc2-3)n1 [AZD6738, 4-{4-[(3R)-3-methylmorpholin-4-yl]-6-[1-((R)-S-methylsulfonimidoyl)cyclopropyl]pyrimidin-2-yl}-1H-pyrrolo[2,3-b]pyridine]
dose-limiting toxicity (DLT) (AZD6738 160 mg BD days 1-14 with paclitaxel): One dose-limiting toxicity (DLT) of neutropenic fever
dose-limiting toxicity (DLT) (AZD6738 240 mg BD days 1-14 with paclitaxel): One dose-limiting toxicity (DLT) of neutropenic fever
maximum tolerated dose of AZD6738 (days 1-14 of 28-day cycle, with paclitaxel 80 mg/m2, per protocol): 240 mg BID
